Columns and labels:
[1] = system: MUTU-1 Burkitt lymphoma cell line (EBV+); assay: cells; details: Mutu-1, 24 h; for IC50: read-out: IC50 MUTU-I 24 h; for viability at 1 µM: read-out: MUTU-1 Cell Viability % 1 μM, 1 μM, 24 h; for viability at 10 µM: read-out: MUTU-1 Cell Viability % 10 μM, 10 μM, 24 h
DG-75 cells = assay: Effect of NAC antioxidant pre-treatment on viability of DG-75 cells (alamarBlue); format: cell-based; details: Homo sapiens, 1 µM compound, 48 h, no NAC, read-out: viable DG-75 cells without NAC
Method: Cell proliferation of DG-75 cells was determined with an alamarBlue assay (seeding density 2 × 10^4 cells/mL per well for 96-well plates), with vehicle control ethanol 1% (v/v). Cells were retained for 24 h and then pre-treated with NAC (5 mM) for 1 h, followed by compounds 15, 16b and 16c at 1 μM for 48 h. Cell viability was measured by alamarBlue assay (mean of three independent experiments).
N-Acetylcysteine (Sigma) was dissolved in sterile water (100 mM). Fresh solutions were prepared for each experiment. A 96 well plate was seeded with 2 × 10^4 cells/well for DG-75 cells. After 23 h, the DG-75 cells were then pre-treated with NAC (5 mM) for 1 h before compound treatment. The wells were then treated with the desired drug concentration (1 µM) for a predetermined time frame (48 h). After treatment and incubation, each well was treated with 20 µL of alamarBlue (37 °C) and the plate was incubated in the dark at 37 °C for 4–6 h. Fluorescence of the 96 well plates was then recorded at 590 nm (excitation 544 nm), as described for ‘alamarBlue viability assay’ (above). The percentage of viable cells remaining with NAC pre-treatment was compared to the percentage of viable cells remaining without NAC pre-treatment in order to determine the implication of ROS in the mechanism of cell death induced.

[2] = system: DG-75 Burkitt lymphoma cell line (EBV−, chemoresistant); assay: cells; details: Homo sapiens, DG-75, 48 h; for viability at 1 µM: read-out: DG-75 Cell Viability % 1 μM, 1 μM, 48 h; for viability at 10 µM: read-out: DG-75 Cell Viability % 10 μM, 10 μM, 48 h; for IC50: read-out: IC50 DG-75 48 h
[3] = system: DG-75 Burkitt's lymphoma cell line; assay: FITC Annexin V/PI FACS analysis of apoptosis in DG-75 cells; format: cell-based; details: 48 h
Method: (§1) BL cells DG-75 and MUTU-1 (750,000) were treated with the specified concentration of the selected compound and incubated for 24 h (MUTU-1) or 48 h (DG-75) with taxol as the positive control. Samples were harvested by centrifugation and the pellets were rinsed with 0.5 mL of Ca^2+ Annexin V binding buffer (0.1 M HEPES, pH 7.4; 1.4 M NaCl; 25 mM CaCl2) each and pelleted again by centrifugation. Supernatants were decanted and the pellets were suspended again in 50 µL FITC Annexin V (diluted 1:33 in Ca^2+ Annexin V binding buffer), the samples were then placed on ice and incubated for 10 min in the dark. After the incubation period 0.5 mL of Ca^2+ Annexin V binding buffer was added and samples were pelleted by centrifugation. The supernatant was decanted and the pellet was suspended in PI solution (500 µL; 0.5 µg/mL). After 1 h, the samples were recorded using a CyAn ADP flow cytometer (Beckman Coulter Inc., Brea, CA, USA). 10,000 cells were analysed with the Flowjo software package. Taxol was used as a positive control for cell death.

[4] = system: MUTU-1 Burkitt lymphoma cell line (EBV+); details: 1 μM, 24 h
[5] = system: MUTU-1 Burkitt's lymphoma cell line; assay: FITC Annexin V/PI FACS analysis of apoptosis in MUTU-I cells; format: cell-based; details: 24 h
Method: as §1

[6] = system: DG-75 Burkitt lymphoma cell line (EBV−, chemoresistant); details: 1 μM, 48 h
[7] = Viability of peripheral blood mononuclear cells (alamarBlue); format: cell-based; details: human, peripheral blood mononuclear cells (PBMCs); for viability at 24 h, 0.5 µM: read-out: viable PBMCs at 0.5 µM; for viability at 24 h, 1 µM: read-out: viable PBMCs at 1 µM
Method: BL cells were seeded in a 96-well plate (1–5 × 10^4 cells per 200 µL in well). Cells were treated with the desired drug concentration for a predetermined time frame and incubated as required. alamarBlue (20 µL) was added to each well and the cells were incubated at 37 °C in the dark for 4 h. Plates were then recorded on a fluorescence plate reader (SpectraMax Gemini, Molecular Devices) at 544 nm (excitement) and 590 nm (emission). Experiments were performed in triplicate using controls of reagent, medium and vehicle (100% viability). Taxol (10 μM) was used as the control drug (90% cytotoxicity) for both cell lines. The experiments were performed in triplicate and the mean value for three independent experiments was calculated.
Blood was obtained from healthy donors (n = 2) after informed consent was received. The blood was then placed into a 50 mL falcon tube and diluted with phosphate-buffered saline (PBS), 1:2. The blood was separated into red blood cells, white blood cell ring and serum using LymphoPrep. The blood was slowly added to Ficoll pague plus (20 mL). The tubes containing the blood were then centrifuged for 30 min at 1700 g. Following transfer of the white blood cell ring to a new 50 mL tube, the volume was adjusted to 50 mL. The samples were again centrifuged for 10 min at 1700 g. The, supernatant liquid was removed; and this step was repeated. The resultant pellet was then resuspended in 10 mL of complete Iscove’s Modified Dulbecco’s (IMDM) media (10% FBS, 0.1% Ciprofloxacin (10 mg/mL)) for use in the cell viability experiments.

MUTU-I cell line = assay: Lactate dehydrogenase (LDH) release cytotoxicity assay in MUTU-I cells; format: cell-based; details: percentage of total LDH release
Method: (§2) The CytoTox 96 non-radioactive cytotoxicity assay (Promega Corporation; 2800 Woods Hollow Road, Madison, WI, USA) was used to determine the cyctotoxicity of selected compounds. BL cells were incubated for 24 hr and then treated with the selected compounds (at 10 μM concentration) 15, 16b and 16c as in the cell viability assay. After 24 or 48 h as appropriate, the lysis solution (10X), (20 μL) was added. The cells were incubated for a further 1 h to ensure complete death. The supernatant (50 μL) was removed and transferred to a new 96-well plate. “Substrate mix″ (50 μL) was added and the plate was retained in the dark at RT for 30 min. “Stop solution″ (50 μL) was added to each well and the absorbance was recorded at 490 nm with a Dynatech MR5000 plate reader and the cell death was calculated.

DG-75 cell line = assay: Lactate dehydrogenase (LDH) release cytotoxicity assay in DG-75 cells; format: cell-based; details: percentage of total LDH release
Method: as §2

O=C1C2C3c4ccccc4C(/C=C/[N+](=O)[O-])(c4ccccc43)C2C(=O)N1CCCCCCN1C(=O)C2C3c4ccccc4C(/C=C/[N+](=O)[O-])(c4ccccc43)C2C1=O (stereo not drawn) [Compound 15, 13,13′-(Hexane-1,6-diyl)bis(9-((E)-2-nitrovinyl)-9,10-dihydro-9,10[3,4]epipyrroloanthracene-12,14-dione)]
IC50 [1]: 90 nM
viability at 1 µM [1]: < 5%
viability at 10 µM [1]: 2.1%
viability at 1 µM (DG-75 cells): 6 to 23%
viability at 1 µM [2]: < 5%
viability at 10 µM [2]: 0%
IC50 [2]: 240 nM
apoptosis in DG-75 at 10 µM ([3]; 10 µM): 95%
MUTU-1 Cell Viability % 1 μM [4]: 4.5%
apoptosis in MUTU-I at 0.2 µM ([5]; 0.2 µM): > 90%
DG-75 Cell Viability % 1 μM [6]: 3.8%
viability at 24 h, 0.5 µM [7]: ~99%
viability at 24 h, 1 µM [7]: 72 to 81%

O=C1C2C3c4ccccc4C(C=C[N+](=O)[O-])(c4ccccc43)C2C(=O)N1c1ccc(Cl)cc1 (stereo not drawn) [Compound 16b, (E)-13-(4-Chlorophenyl)-9-(2-nitrovinyl)-9,10-dihydro-9,10-[3,4]epipyrroloanthracene-12,14-dione]
LDH release (cytotoxicity) in MUTU-I at 1 µM (MUTU-I cell line; 1 µM): 5%
LDH release (cytotoxicity) in MUTU-I at 10 µM (MUTU-I cell line; 10 µM): 2%
IC50 [1]: 170 nM
viability at 1 µM [1]: 5%
viability at 10 µM [1]: 0.38%
viability at 1 µM (DG-75 cells): 6 to 23%
viability at 1 µM [2]: < 6%
viability at 10 µM [2]: 0.52%
IC50 [2]: 450 nM
apoptosis in DG-75 at 1 µM [3]: 61%
apoptosis in MUTU-I at all concentrations ([5]; all concentrations (0.2–10 µM)): over 80%
DG-75 Cell Viability % 1 μM [6]: 5.5%
viability at 24 h, 0.5 µM [7]: ~99%
viability at 24 h, 1 µM [7]: 72 to 81%

COc1ccc(N2C(=O)C3C4c5ccccc5C(/C=C/[N+](=O)[O-])(c5ccccc54)C3C2=O)cc1 (stereo not drawn) [Compound 16c, (E)-13-(4-Methoxyphenyl)-9-(2-nitrovinyl)-9,10-dihydro-9,10-[3,4]epipyrroloanthracene-12,14-dione]
IC50 [1]: 200 nM
viability at 1 µM [1]: 0.19%
viability at 10 µM [1]: 1.1%
viability at 1 µM (DG-75 cells): 6 to 23%
viability at 1 µM [2]: 28.4%
viability at 10 µM [2]: 2.1%
IC50 [2]: 560 nM
apoptosis in DG-75 at 1 µM [3]: 29%
apoptosis in MUTU-I at 0.5 µM ([5]; 0.5 µM): > 90%
LDH release (cytotoxicity) in DG-75 at 10 µM (DG-75 cell line): 25%
viability at 24 h, 0.5 µM [7]: ~99%
viability at 24 h, 1 µM [7]: 72 to 81%
